In one assay the target is T1, His6-TEV-PPARγ-(234-505) (Homo sapiens, UniProt P37231).
T1 construct: The His6-TEV-PPARγ-(234-505) protein for assay was expressed and purified; TEV cleavage site (N); made in house
T1 sequence (P37231 234-505): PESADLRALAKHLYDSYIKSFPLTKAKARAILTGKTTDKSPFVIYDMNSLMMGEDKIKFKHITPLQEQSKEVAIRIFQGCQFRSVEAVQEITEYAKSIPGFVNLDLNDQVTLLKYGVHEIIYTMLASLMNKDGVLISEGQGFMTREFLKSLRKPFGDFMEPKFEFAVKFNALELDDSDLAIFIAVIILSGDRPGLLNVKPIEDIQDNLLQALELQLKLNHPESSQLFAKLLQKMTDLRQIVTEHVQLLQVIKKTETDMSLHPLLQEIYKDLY
The assay can be described thus: TR-FRET Assay to Measure Co-R Peptide Recruitment to PPARγ. The assay is classed as biochemical. The settings on record: Co-R peptide (SMRT-ID2) recruitment, top final concentration 20 μM, read-out: TR-FRET i-Ag, AC50. The essentials:
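Corepressor recruitment is measured by adding terbium-labeled anti-His antibody and FITC SMRT-ID2 peptide, at 5 and 200 nM final, after a 20-minute room-temperature protein–compound incubation. After one further hour, signal is converted to percent response between DMSO and 500 nM T0070907 wells.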
Background: In TR-FRET formats the signal depends on donor and acceptor labels being close together.

The next assay has as its system UM-UC-9 engineered cells. The assay can be described thus: Cell proliferation / short-term viability assay, CellTiter-Glo 144 h. The settings on record: read-out: CTGlo 144 h UMUC9.5, G150. The assay is classed as cell-based, human. As to the method: Cell Seeding for Proliferation Assay
UM-UC-9 engineered cells were cultured in Dulbecco's Modified Eagle Medium (DMEM) supplemented with 10% FBS, 25 mM glucose (high glucose), 4.0 mM L-glutamine, 2.0 mM GlutaMAX™, 1.0 mM pyruvate, 1.0% non-essential amino acids (NEAA) in a 95% humidified incubator at 37° C. with 5% CO2. Cell banks of UM-UC-9 engineered assay-ready cells (ARCs) were prepared from a very active growth stage. Vials of ARCs containing approximately 5×10^6 cells per vial were stored in liquid nitrogen vapor phase cryostorage until use.
For making assay plates, ARCs were recovered from cryostorage, strained in a […] cell strainer, verified for cell viability >90% and counted using a cell counter (Cellometer Auto 1000, Nexelom). Each cell line was seeded into 384-well plates (50 μl/well) using DMEM medium at a density previously determined to be in log growth phase 7 days post-seeding (500 cells/well) using a bulk reagent dispenser (Multidrop™ Combi, Thermo Scientific) with a large-bore plastic-tip cassette pre-sanitized with 70% ethanol. One plate of cells was designated as the pretreatment time-zero (T0) control. Freshly seeded plates were allowed to sit lidded for 30 minutes within a biosafety cabinet for cells to settle distributed within the plate wells uniformly and then placed into an automated incubator (STX110, Liconic) at 37° C., 5% CO2, and 95% relative humidity.
Preparation of Test Compound in Assay-Ready Plate
Compounds were stored in a low-temperature sample archive as 10 mM dimethyl sulfoxide (DMSO) solutions at −20° C. under reduced humidity (−45° C. dew point) and protected from light. All samples in the automated archive are stored in 2D barcoded polypropylene tubes, tracked through a laboratory information management system (LIMS), and have been verified for identity and purity by NMR (Chemistry, H3 Biomedicine) and by LCMS (Analytical Chemistry, H3 Biomedicine) at the time of sample registration. Identity by mass matching and purity are again verified at the time of sample request fulfillment by redundant LCMS methods (acidic and basic separation protocols; Analytical Chemistry, H3 Biomedicine). Samples retrieved from low-temperature archive storage were solubilized by heated sonication (Bransonic® Ultrasonic Bath, Branson), transferred (Microlab Starlet, Hamilton) and serially-diluted (Viaflo Assist, Integra) by low-volume liquid handlers, and tracked in LIMS by automation log files to create a ID barcoded master dose-response plate (MDR) to serve as a standard source for all assay-ready plates (ARP) used within an experiment. ARPs prepared by acoustic transfer (ATS-100, EDC) of nL volumes from the MDR source were heat-sealed (PlateLoc, Agilent) and stored at −20° C. prior to use (<7 days from production). Tracking of liquid transfers via acoustic dispenser log files were used to update the LIMS system for all ARP plate maps.
Measurement of Pretreatment Control Cells and Sample Anti-Proliferative Effects on Treated Cells
On day 0 (pretreatment cells) or day 7 (treated cells), a cell proliferation assay was performed using an automated robotic assay platform (ACell, High-Res Biosolutions). Cell ARP's were removed from incubation, their plate lid discarded, and using a bulk reagent dispenser (Multidrop™ Combi, Thermo Scientific with a small-bore metal-tip cassette) 25 μL (1/2 volume) of Cell Titer-Glo® 2.0 Cell Viability Assay reagent (Promega) was added to wells of columns 1-23 (column 24 will be used as plate background or positive control). Cell ARP's were incubated at room temperature in an automation hotel position for a total of 1.0 minute while the next plate was delivered to the bulk reagent dispenser and then lid-free cell ARP's were returned to incubate at 37° C. for 2.5 hours. […]
On the technique in general: Cellular ATP, detected with luciferase, serves as a proxy for viable cell number.

Each structure is given as a SMILES string. Like-named read-outs stand apart in the source and are kept apart here.

For the compound `COc1cc(-c2cc(C(=O)N3CCC(C(=O)NC(C)c4cccc(Cl)c4)CC3)n[nH]2)c(Cl)cn1` (single isomer, unassigned) [Example 115-A], the AC50 at His6-TEV-PPARγ-(234-505) (listed as 115a) came to 717 nM. Moreover, the IC50 in the assay with UM-UC-9 engineered cells (listed as 115a) was 1320 nM.
On to `COc1cc(-c2cc(C(=O)N3CCC(C(=O)NCc4ccc(OC(F)(F)F)cc4)CC3)n[nH]2)c(Cl)cn1` [Example 164, 1-(5-(5-chloro-2-methoxypyridin-4-yl)-1H-pyrazole-3-carbonyl)-N-(4-(trifluoromethoxy)benzyl)piperidine-4-carboxamide], for which, on His6-TEV-PPARγ-(234-505), the AC50 stood at 608 nM. The IC50 in the assay with UM-UC-9 engineered cells (Homo sapiens, UM-UC-9, 144 h) came out at 1010 nM.
For `COc1cc(-c2cc(C(=O)N3CCC(C(=O)N[C@@H]4C[C@H]4c4ccccc4)CC3)n[nH]2)c(Cl)cn1` [Example 133, 1-(5-(5-chloro-2-methoxypyridin-4-yl)-1H-pyrazole-3-carbonyl)-N-((1R,2S)-2-phenylcyclopropyl)piperidine-4-carboxamide] the same measures were 292 nM and 1740 nM.
On to `COc1cc(-c2cc(C(=O)N3CC[C@H](C(=O)N[C@@H]4CN(c5ccc(C)nc5)C[C@H]4F)CC34CC4)n[nH]2)c(F)cn1` [Example 426, (S)—N-((3R,4R)-4-fluoro-1-(6-methylpyridin-3-yl)pyrrolidin-3-yl)-4-(5-(5-fluoro-2-methoxypyridin-4-yl)-1H-pyrazole-3-carbonyl)-4-azaspiro[2.5]octane-7-carboxamide], for which, on His6-TEV-PPARγ-(234-505), the AC50 was found to be 24 nM. The IC50 in the assay on UM-UC-9 engineered cells (Homo sapiens, UM-UC-9, 144 h) was 50.9 nM.
In the case of `COc1cc(-c2cc(C(=O)N3CC[C@H](C(=O)NCc4ncc(C5COC5)cc4Cl)CC34CC4)n[nH]2)c(F)cn1` [Example 392, (S)—N-((3-chloro-5-(oxetan-3-yl)pyridin-2-yl)methyl)-4-(5-(5-fluoro-2-methoxypyridin-4-yl)-1H-pyrazole-3-carbonyl)-4-azaspiro[2.5]octane-7-carboxamide], the AC50 at His6-TEV-PPARγ-(234-505) turned out to be 9.1 nM. The IC50 with UM-UC-9 engineered cells (Homo sapiens, UM-UC-9, 144 h) came to 45.2 nM.
On the same counts, the results for `COc1cc(-c2cc(C(=O)N3CC[C@H](C(=O)NC4CCC5(COC5)c5cccnc54)CC34CC4)n[nH]2)c(F)cn1` (stereo partly drawn) [Example 496, (7S)—N-(7′,8′-dihydro-6′H-spiro[oxetane-3,5′-quinolin]-8′-yl)-4-(5-(5-fluoro-2-methoxypyridin-4-yl)-1H-pyrazole-3-carbonyl)-4-azaspiro[2.5]octane-7-carboxamide] are 9.6 nM and 68.2 nM.
As to `COc1cc(-c2cc(C(=O)N3CCC(C(=O)NC4C(C)(C)C(N5CCC(F)(F)C5)C4(C)C)CC34CC4)n[nH]2)c(F)cn1` (mixture of isomers) [Example 378, (S)—N-((1s,3R)-3-(3,3-difluoropyrrolidin-1-yl)-2,2,4,4-tetramethylcyclobutyl)-4-(5-(5-fluoro-2-methoxypyridin-4-yl)-1H-pyrazole-3-carbonyl)-4-azaspiro[2.5]octane-7-carboxamide and (S)—N-((1r,3S)-3-(3,3-difluoropyrrolidin-1-yl)-2,2,4,4-tetramethylcyclobutyl)-4-(5-(5-fluoro-2-methoxypyridin-4-yl)-1H-pyrazole-3-carbonyl)-4-azaspiro[2.5]octane-7-carboxamide], the AC50 on His6-TEV-PPARγ-(234-505) amounted to 130 nM. Further, the IC50 with UM-UC-9 engineered cells was determined as 224 nM.
Turning to `COc1cc(-c2cc(C(=O)N3CCC(C(=O)NC4COC(C)(C)C4)CC3)n[nH]2)c(Cl)cn1` (racemic) [Example 213, 1-(5-(5-chloro-2-methoxypyridin-4-yl)-1H-pyrazole-3-carbonyl)-N (5,5-dimethyltetrahydrofuran-3-yl)piperidine-4-carboxamide], the AC50 at His6-TEV-PPARγ-(234-505) came to 571 nM. Besides, the IC50 in the assay on UM-UC-9 engineered cells (Homo sapiens, UM-UC-9, 144 h) came to 1640 nM.
For `COc1cc(-c2cc(C(=O)N3CC[C@H](C(=O)NCC4(O)COC4)CC34CC4)[nH]n2)c(F)cn1` [Example 463, (S)-4-(3-(5-fluoro-2-methoxypyridin-4-yl)-1H-pyrazole-5-carbonyl)-N-((3-hydroxyoxetan-3-yl)methyl)-4-azaspiro[2.5]octane-7-carboxamide] the same measures were 180 nM and 5200 nM.
On the same counts, the results for `COc1cc(-c2[nH]nc(C(=O)N3CCC(C(=O)NC4CCC(C)CC4)CC3)c2F)ccn1` (mixture of isomers) [Example 102] are 321 nM and 643 nM.
For `COc1cc(-c2cc(C(=O)N3CCC(C(=O)NCC4CCC=CO4)CC3)n[nH]2)c(Cl)cn1` (stereo not shown) [Example 158, 1-(5-(5-chloro-2-methoxypyridin-4-yl)-1H-pyrazole-3-carbonyl)-N-((3,4-dihydro-2H-pyran-2-yl)methyl)piperidine-4-carboxamide] the same measures were 296 nM and 544 nM.
`COc1cc(-c2cc(C(=O)N3CCC(C(=O)NCc4cn5cc(C)ccc5n4)CC3)n[nH]2)c(Cl)cn1` [Example 217, 1-(5-(5-chloro-2-methoxypyridin-4-yl)-1H-pyrazole-3-carbonyl)-N-((6-methylimidazo[1,2-a]pyridin-2-yl)methyl)piperidine-4-carboxamide]: the AC50 at His6-TEV-PPARγ-(234-505) was found to be 309 nM. Moreover, the IC50 in the assay with UM-UC-9 engineered cells (Homo sapiens, UM-UC-9, 144 h) came out at 3630 nM.
Consider `COc1cc(-c2cc(C(=O)N3CC[C@H](C(=O)NC4CCC5CCCN5C4)CC34CC4)n[nH]2)c(F)cn1` (single isomer, unassigned) [Example 376-D], for which the AC50 on His6-TEV-PPARγ-(234-505) was determined as 129 nM. In addition, the IC50 in the assay with UM-UC-9 engineered cells was determined as 71.4 nM.
With `CCO[C@]1(C(F)(F)F)CC[C@@H](NC(=O)[C@H]2CCN(C(=O)c3cc(-c4cc(C)ncn4)[nH]n3)C3(CC3)C2)CC1` (single isomer, unassigned) [Example 308-C], the AC50 on His6-TEV-PPARγ-(234-505) turned out to be 2 nM. Moreover, in the assay with UM-UC-9 engineered cells (Homo sapiens, UM-UC-9, 144 h), the IC50 amounted to 5.9 nM.
On the same counts, the results for `COc1cc(-c2cc(C(=O)N3CCC(C(=O)NCC4CC(C)(C)O4)CC3)n[nH]2)c(Cl)cn1` (racemic) [Example 135, 1-(5-(5-chloro-2-methoxypyridin-4-yl)-1H-pyrazole-3-carbonyl)-N-((4,4-dimethyloxetan-2-yl)methyl)piperidine-4-carboxamide] are 483 nM and 2650 nM.
As to `COc1cc(-c2cc(C(=O)N3CCC(C(=O)NC4CCC(O)(C(F)(F)F)CC4)CC3(C)C)n[nH]2)c(F)cn1` (single isomer, unassigned) [Example 407-B], the AC50 on His6-TEV-PPARγ-(234-505) came to 1690 nM. Further, the IC50 in the assay on UM-UC-9 engineered cells is 1340 nM.
Turning to `COc1cc(-c2cc(C(=O)N3CCC(C(=O)NCc4ccc5[nH]c(C)c(C)c5c4)CC3)n[nH]2)c(F)cn1` [Example 272, N-[(2,3-dimethyl-1H-indol-5-yl)methyl]-1-[5-(5-fluoro-2-methoxypyridin-4-yl)-1H-pyrazole-3-carbonyl]piperidine-4-carboxamide], the AC50 at His6-TEV-PPARγ-(234-505) is 9 nM. Moreover, in the assay on UM-UC-9 engineered cells (Homo sapiens, UM-UC-9, 144 h), the IC50 stood at 111 nM.

The values above are taken from US12606541B2, “PPARg modulators and methods of use” (Eisai R&D Management Co., Ltd., priority 2020, dated 2026).
